Assay results published in ChEMBL document CHEMBL3421543, “Melanocortin antagonist tetrapeptides with minimal agonist activity at the mouse melanocortin-3 receptor” (ACS Med Chem Lett, 2015).
Activity calls are given as the source filed them. No cut-off for these calls is given here. Where a SMILES comes first, the peptide text is derived from it. [ ]: non-standard residue; d: D form. dPhe(4-I) = N[C@H](Cc1ccc(I)cc1)C(=O)O

Key:
Assay type in all cases: cell-based
[1] = biological target: Melanocyte-stimulating hormone receptor (Mus musculus, UniProt Q01727); experiment: Agonist activity at mouse melanocortin-1 receptor transfected in HEK293 cells after 6 hrs by beta-galactosidase reporter gene assay
Melanocortin receptor 5 = Melanocortin receptor 5 (Mus musculus, UniProt P41149); experiment: Agonist activity at mouse melanocortin-5 receptor transfected in HEK293 cells after 6 hrs by beta-galactosidase reporter gene assay
Melanocortin receptor 3 [2] = biological target: T1, Melanocortin receptor 3 (Mus musculus, UniProt P33033); experiment: Agonist activity at mouse melanocortin-3 receptor transfected in HEK293 cells after 6 hrs by beta-galactosidase reporter gene assay
Melanocortin receptor 4 [3] = biological target: T2, Melanocortin receptor 4 (Mus musculus, UniProt P56450); experiment: Agonist activity at mouse melanocortin-4 receptor transfected in HEK293 cells after 6 hrs by beta-galactosidase reporter gene assay
Melanocortin receptor 4 [4] = biological target: T2, Melanocortin receptor 4; experiment: (§1) Antagonist activity at mouse melanocortin-4 receptor transfected in HEK293 cells assessed as inhibition of MTII-induced response after 6 hrs by Schild analysis; conditions: for Kb: read-out: pA2 (converted)
[5] = biological target: Melanocortin receptor 3 (Mus musculus) (UniProt P33033); experiment: Antagonist activity at mouse melanocortin-3 receptor transfected in HEK293 cells assessed as inhibition of MTII-induced response up to 100 uM after 6 hrs by Schild analysis
[6] = biological target: Melanocortin receptor 3 (Mus musculus) (UniProt P33033); experiment: Agonist activity at mouse melanocortin-3 receptor transfected in HEK293 cells at 100 uM after 6 hrs by beta-galactosidase reporter gene assay relative to MTII-induced maximal response
[7] = biological target: Melanocortin receptor 4 (Mus musculus) (UniProt P56450); experiment: Agonist activity at mouse melanocortin-4 receptor transfected in HEK293 cells at 100 uM after 6 hrs by beta-galactosidase reporter gene assay relative to MTII-induced maximal response
[8] = biological target: Melanocortin receptor 4 (Mus musculus) (UniProt P56450); experiment: as §1
[9] = biological target: Melanocortin receptor 3 (Mus musculus) (UniProt P33033); experiment: Antagonist activity at mouse melanocortin-3 receptor transfected in HEK293 cells assessed as inhibition of MTII-induced response up to 10 uM after 6 hrs by Schild analysis
Melanocortin receptor 3 [10] = biological target: T1, Melanocortin receptor 3; experiment: (§2) Antagonist activity at mouse melanocortin-3 receptor transfected in HEK293 cells assessed as inhibition of MTII-induced response after 6 hrs by Schild analysis; conditions: read-out: pA2 (converted)
[11] = biological target: Melanocortin receptor 3 (Mus musculus) (UniProt P33033); experiment: Agonist activity at mouse melanocortin-3 receptor transfected in HEK293 cells at 1 uM after 6 hrs by beta-galactosidase reporter gene assay relative to MTII-induced maximal response
[12] = biological target: Melanocortin receptor 3 (Mus musculus) (UniProt P33033); experiment: as §2

T2 sequence (P56450 whole entry): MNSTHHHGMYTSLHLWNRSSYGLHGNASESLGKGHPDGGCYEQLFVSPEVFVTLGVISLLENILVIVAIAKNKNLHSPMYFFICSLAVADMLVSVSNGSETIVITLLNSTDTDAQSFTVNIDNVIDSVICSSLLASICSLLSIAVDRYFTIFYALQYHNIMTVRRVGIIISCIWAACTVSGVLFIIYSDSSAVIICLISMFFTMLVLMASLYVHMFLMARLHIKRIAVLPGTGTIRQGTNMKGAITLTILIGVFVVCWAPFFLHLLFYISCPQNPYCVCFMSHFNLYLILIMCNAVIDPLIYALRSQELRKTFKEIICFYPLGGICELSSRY
Melanocortin receptor 4 (Mus musculus), sequence (P56450 whole entry): as above
T1 sequence (P33033 whole entry): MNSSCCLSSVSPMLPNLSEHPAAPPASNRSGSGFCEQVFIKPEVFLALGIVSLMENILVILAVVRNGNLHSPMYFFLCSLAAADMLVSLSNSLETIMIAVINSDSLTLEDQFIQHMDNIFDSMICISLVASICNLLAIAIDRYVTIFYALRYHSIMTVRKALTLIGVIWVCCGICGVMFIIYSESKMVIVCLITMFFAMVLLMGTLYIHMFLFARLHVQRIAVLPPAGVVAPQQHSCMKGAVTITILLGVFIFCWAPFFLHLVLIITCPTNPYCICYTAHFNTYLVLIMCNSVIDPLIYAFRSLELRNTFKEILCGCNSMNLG
Melanocortin receptor 3 (Mus musculus), sequence (P33033 whole entry): as above
Melanocortin receptor 5, sequence (P41149 whole entry): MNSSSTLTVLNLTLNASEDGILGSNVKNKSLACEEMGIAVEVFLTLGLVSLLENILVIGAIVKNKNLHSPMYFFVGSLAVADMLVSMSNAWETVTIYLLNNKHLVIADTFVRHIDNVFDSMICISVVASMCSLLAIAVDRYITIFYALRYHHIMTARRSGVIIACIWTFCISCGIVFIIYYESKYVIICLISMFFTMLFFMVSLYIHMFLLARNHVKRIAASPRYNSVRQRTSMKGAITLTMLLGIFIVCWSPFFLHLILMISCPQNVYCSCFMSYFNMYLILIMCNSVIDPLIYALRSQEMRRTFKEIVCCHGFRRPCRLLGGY
Melanocyte-stimulating hormone receptor, sequence (Q01727 whole entry): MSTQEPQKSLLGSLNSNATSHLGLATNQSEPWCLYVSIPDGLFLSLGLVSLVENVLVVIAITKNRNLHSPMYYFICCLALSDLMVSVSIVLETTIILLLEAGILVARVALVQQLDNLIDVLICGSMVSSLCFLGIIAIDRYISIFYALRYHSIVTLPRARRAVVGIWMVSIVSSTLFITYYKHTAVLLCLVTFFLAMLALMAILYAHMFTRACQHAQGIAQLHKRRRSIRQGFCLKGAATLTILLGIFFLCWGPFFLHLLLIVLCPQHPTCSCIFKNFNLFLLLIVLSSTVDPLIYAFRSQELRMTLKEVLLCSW

EC50 [1] [µM]	EC50 (Melanocortin receptor 5) [µM]	EC50 (Melanocortin receptor 3 [2]) [µM]	EC50 (Melanocortin receptor 4 [3]) [µM]	Kb (Melanocortin receptor 4 [4]) [µM]	SMILES	other results
8.3	23.7	> 100	> 100	0.0794	CC(=O)N[C@@H](Cc1c[nH]c2ccccc12)C(=O)N[C@H](Cc1ccc(I)cc1)C(=O)N[C@@H](CCCNC(=N)N)C(=O)N[C@@H](Cc1csc2ccccc12)C(N)=O	inhibition [5]: inactive
2	2.8	> 100	> 100		CC(=O)N[C@@H](Cc1c[nH]c2ccccc12)C(=O)N[C@H](Cc1ccc(I)cc1)C(=O)N[C@@H](CCCNC(=N)N)C(=O)N[C@@H](Cc1c[nH]c2ccccc12)C(N)=O (Ac-W[dPhe(4-I)]RW-NH2)	
	0.0046		0.0054		CC(=O)N[C@@H](Cc1cnc[nH]1)C(=O)N[C@H](Cc1ccccc1)C(=O)N[C@@H](CCCN=C(N)N)C(=O)N[C@@H](Cc1c[nH]c2ccccc12)C(N)=O	
2.7	5.3			1	CC(=O)N[C@@H](Cc1c[nH]c2ccccc12)C(=O)N[C@H](Cc1ccc(I)cc1)C(=O)N[C@@H](CCCNC(=N)N)C(=O)N1Cc2ccccc2C[C@H]1C(N)=O	Activity [6]: 48%; Activity [7]: 44%; INH [8]: 1 µM; inhibition [9]: inactive
5.5	20.3	> 100	> 100	0.00501	CC(=O)N[C@@H](Cc1c[nH]c2ccccc12)C(=O)N[C@H](Cc1ccc(I)cc1)C(=O)N[C@@H](CCCNC(=N)N)C(=O)N[C@@H](Cc1ccc2ccccc2c1)C(N)=O	Kb (Melanocortin receptor 3 [10]): 1.26 µM; Ki (Melanocortin receptor 4 [4]): < 0.006 µM
20.7	7.8	> 100	> 100	0.501	CC(=O)N[C@@H](Cc1c[nH]c2ccccc12)C(=O)N[C@H](Cc1ccc(I)cc1)C(=O)N[C@@H](CCCNC(=N)N)C(=O)N[C@@H](Cc1ccc(-c2ccccc2)cc1)C(N)=O	INH [8]: 0.48 µM; inhibition [5]: inactive
6.5	1.8			0.158	CC(=O)N[C@@H](Cc1c[nH]c2ccccc12)C(=O)N[C@H](Cc1ccc(I)cc1)C(=O)N[C@@H](CCCNC(=N)N)C(=O)N[C@@H](Cc1ccccc1)C(N)=O	Activity [6]: 66%; Activity [7]: 44%
0.00067					CCCC[C@H](NC(C)=O)C(=O)N[C@H]1CC(=O)NCCCC[C@@H](C(N)=O)NC(=O)[C@H](Cc2c[nH]c3ccccc23)NC(=O)[C@H](CCCNC(=N)N)NC(=O)[C@@H](Cc2ccc3ccccc3c2)NC(=O)[C@H](Cc2c[nH]cn2)NC1=O	Activity [11]: 54%
5.8	19.7	> 100	> 100	0.00501	CC(=O)N[C@@H](Cc1c[nH]c2ccccc12)C(=O)N[C@H](Cc1ccc(I)cc1)C(=O)N[C@@H](CCCNC(=N)N)C(=O)N[C@H](Cc1ccc2ccccc2c1)C(N)=O	Kb (Melanocortin receptor 3 [10]): 2 µM; Ki (Melanocortin receptor 4 [4]): < 0.006 µM
					CC(=O)N[C@@H](Cc1cnc[nH]1)C(=O)N[C@H](Cc1ccccc1)C(=O)N[C@@H](CCCNC(=N)N)C(=O)N[C@@H](Cc1c[nH]c2ccccc12)C(N)=O	pA2 [12]: inactive; pA2 [8]: inactive
